Reference: paper PMC8848768, “Synthesis and evaluation of potent yaku'amide A analogs” (Chemical Science, 2022)
Read-outs that look alike come from different tables or passages of the source. Square brackets hold non-standard residues; d marks the D form. Peptide text beside a SMILES is read from it. * marks the point of attachment. NH((S)-1-NMe2-3-Me-but-2-yl) = CC(C)[C@@H](CN(C)C)N*; dVal(3-OH) = CC(C)(O)[C@@H](N)C(=O)O; d(aIle) = CC[C@H](C)[C@@H](N)C(=O)O; Val(3-OH) = CC(C)(O)[C@H](N)C(=O)O; ΔVal = CC(C)=C(N)C(=O)O

Columns and labels:
[1] = tested on: HT29; test: cells; conditions: read-out: Aver IC50, HT29
Protocol: (§1) The antiproliferative activity profiles of 1a, its full-length analogs 2a and 2b, and its partial structures (23, 24, 26, and 30) were determined by in vitro screening in 72 hours MTS cell proliferation assays against a panel of 18 different human cancer cell lines. […] The three peptides were also evaluated for their antiproliferative activity against the lung fibroblast MRC5 cell line.
(§2) Cells (40 µ L) are added into individual wells of a 384-well black/clear bottom plate on day zero at concentrations enabling continuous log growth over the course of the assay. On day one, compounds (or DMSO) are transferred using an ATS-liquid handler (100 nL per well) to individual wells containing cells and the cells are treated for 72 hours (37 °C, 5% CO 2) prior to measuring proliferation using MTS reagent following manufacturer’s instructions. Net OD values are determined by subtracting the average OD values of cells (measured on day 1, T = 0) from average total OD value of cells (measured on day 4, T = 72h). IC 50 values are calculated using proprietary software (IC 50 values normalized against all compounds). Results represent n>2 independent studies (in duplicate).
(§3) Table S1. Antiproliferative Data of Compounds 1a, 2a, 2b, 23, 24, 26, and 30.
(§4) Table S2. Human Cell Line Descriptions.
(§5) Human Cell Line* Description
(§6) *All cells were obtained from ATCC and are authenticated

[2] = tested on: A549; test: cells; conditions: read-out: Aver IC50, A549
Protocol: as §1, §2, §3, §4, §5, §6

[3] = tested on: JURKAT; test: cells; conditions: read-out: Aver IC50, JURKAT
Protocol: as §1, §2, §3, §4, §5, §6

[4] = tested on: HCT116; test: cells; conditions: read-out: Aver IC50, HCT116
Protocol: as §1, §2, §3, §4, §5, §6

[5] = tested on: BXPC3; test: cells; conditions: read-out: Aver IC50, BXPC3
Protocol: as §1, §2, §3, §4, §5, §6

[6] = tested on: lung fibroblast MRC5 cell line; test: cells; conditions: read-out: Aver IC50, MRC5
Protocol: as §1, §2, §3, §4, §5, §6

[7] = tested on: U937; test: cells; conditions: read-out: Aver IC50, U937
Protocol: as §1, §2, §3, §4, §5, §6

[8] = tested on: PANC1005; test: cells; conditions: read-out: Aver IC50, PANC1005
Protocol: as §1, §2, §3, §4, §5, §6

[9] = tested on: COLO678; test: cells; conditions: read-out: Aver IC50, COLO678
Protocol: as §1, §2, §3, §4, §5, §6

[10] = tested on: THP1; test: cells; conditions: read-out: Aver IC50, THP1
Protocol: as §1, §2, §3, §4, §5, §6

[11] = tested on: RAMOS; test: cells; conditions: read-out: Aver IC50, RAMOS
Protocol: as §1, §2, §3, §4, §5, §6

[12] = tested on: OVCAR3; test: cells; conditions: read-out: Aver IC50, OVCAR3
Protocol: as §1, §2, §3, §4, §5, §6

[13] = tested on: CALU6; test: cells; conditions: read-out: Aver IC50, CALU6
Protocol: as §1, §2, §3, §4, §5, §6

[14] = tested on: NCIH1048; test: cells; conditions: read-out: Aver IC50, NCIH1048
Protocol: as §1, §2, §3, §4, §5, §6

[15] = tested on: SNUC1; test: cells; conditions: read-out: Aver IC50, SNUC1
Protocol: as §1, §2, §3, §4, §5, §6

[16] = tested on: HL60; test: cells; conditions: read-out: Aver IC50, HL60
Protocol: as §1, §2, §3, §4, §5, §6

[17] = tested on: MV411; test: cells; conditions: read-out: Aver IC50, MV411
Protocol: as §1, §2, §3, §4, §5, §6

[18] = tested on: A375; test: cells; conditions: read-out: Aver IC50, A375
Protocol: as §1, §2, §3, §4, §5, §6

[19] = tested on: MCF7; conditions: read-out: Aver IC50, MCF7; MCF7 (Breast Carcinoma); MTS, 72 hours, 37 °C, 5% CO2, 384-well; n>2 independent studies (in duplicate)
Protocol: as §1, §2, §3, §4, §5, §6

[20] = HT29 (Colon Carcinoma), MTS, 72 hours, 37 °C, 5% CO2, 384-well, n>2 independent studies (in duplicate)
[21] = A549 (Lung - NSCLC), MTS, 72 hours, 37 °C, 5% CO2, 384-well, n>2 independent studies (in duplicate)
[22] = JURKAT (acute T-cell leukemia), MTS, 72 hours, 37 °C, 5% CO2, 384-well, n>2 independent studies (in duplicate)
[23] = HCT116 (Colon Carcinoma), MTS, 72 hours, 37 °C, 5% CO2, 384-well, n>2 independent studies (in duplicate)
[24] = BXPC3 (Pancreatic - Adenocarcinoma), MTS, 72 hours, 37 °C, 5% CO2, 384-well, n>2 independent studies (in duplicate)
[25] = MRC5 (Lung Fibroblast, noncancerous), MTS, 72 hours, 37 °C, 5% CO2, 384-well, n>2 independent studies (in duplicate)
[26] = U937 (Pro-monocytic, Human Myeloid Leukemia), MTS, 72 hours, 37 °C, 5% CO2, 384-well, n>2 independent studies (in duplicate)
[27] = PANC1005 (Pancreatic - Adenocarcinoma), MTS, 72 hours, 37 °C, 5% CO2, 384-well, n>2 independent studies (in duplicate)
[28] = COLO678 (Colon Carcinoma), MTS, 72 hours, 37 °C, 5% CO2, 384-well, n>2 independent studies (in duplicate)
[29] = THP1 (Acute Monocytic Leukemia), MTS, 72 hours, 37 °C, 5% CO2, 384-well, n>2 independent studies (in duplicate)
[30] = RAMOS (Burkitt's lymphoma), MTS, 72 hours, 37 °C, 5% CO2, 384-well, n>2 independent studies (in duplicate)
[31] = OVCAR3 (Ovary - Adenocarcinoma), MTS, 72 hours, 37 °C, 5% CO2, 384-well, n>2 independent studies (in duplicate)
[32] = CALU6 (Lung - Adenocarcinoma), MTS, 72 hours, 37 °C, 5% CO2, 384-well, n>2 independent studies (in duplicate)
[33] = NCIH1048 (Lung - SCLC), MTS, 72 hours, 37 °C, 5% CO2, 384-well, n>2 independent studies (in duplicate)
[34] = SNUC1 (Colon Carcinoma), MTS, 72 hours, 37 °C, 5% CO2, 384-well, n>2 independent studies (in duplicate)
[35] = HL60 (Leukema - Promyelocytic), MTS, 72 hours, 37 °C, 5% CO2, 384-well, n>2 independent studies (in duplicate)
[36] = MV411 (Acute Myeloid Leukemia), MTS, 72 hours, 37 °C, 5% CO2, 384-well, n>2 independent studies (in duplicate)
[37] = A375 (Malignant Melanoma), MTS, 72 hours, 37 °C, 5% CO2, 384-well, n>2 independent studies (in duplicate)

Compound | IC50 [1, 20] [nM] | IC50 [2, 21] [nM] | IC50 [3, 22] [nM] | IC50 [4, 23] [nM] | IC50 [5, 24] [nM] | IC50 [6, 25] [nM] | IC50 [7, 26] [nM] | IC50 [8, 27] [nM] | IC50 [9, 28] [nM] | IC50 [10, 29] [nM] | IC50 [11, 30] [nM] | IC50 [12, 31] [nM] | IC50 [13, 32] [nM] | IC50 [14, 33] [nM] | IC50 [15, 34] [nM] | IC50 [16, 35] [nM] | IC50 [17, 36] [nM] | IC50 [18, 37] [nM] | IC50 ([1]; Homo sapiens, HT-29, 72 h) [nM] | IC50 ([2]; Homo sapiens, A549, 72 h) [nM] | other results
CCC(CC)=C(NC(=O)CNC(=O)C(NC(=O)[C@@H](NC(=O)C(C)(C)C(=O)[C@@H](C)CC(C)C)[C@](C)(O)CC)=C(C)C)C(=O)N[C@@H](C(=O)NCCN(C)C)C(C)C [Compound 26] | > 25000 | > 25000 | > 25000 | > 25000 | > 25000 | > 25000 | > 25000 | > 25000 | > 25000 | > 25000 | > 25000 | > 25000 | > 25000 | > 25000 | > 25000 | > 25000 | > 25000 | > 25000 |  |  | IC50 [19]: 6340 nM
CC(=O)N[C@@H](C(=O)N[C@H](C(=O)NC(C(=O)N[C@H](CN(C)C)C(C)C)=C(C)C)C(C)C)C(C)C [Compound 23] | > 25000 | > 25000 | > 25000 | > 25000 | > 25000 | > 25000 | > 25000 | > 25000 | > 25000 | > 25000 | > 25000 | > 25000 | > 25000 | > 25000 | > 25000 | > 25000 | > 25000 | > 25000 |  |  | 
CC[C@@]1(O)C(=O)OCc2c1cc1n(c2=O)Cc2cc3ccccc3nc2-1 [Camptothecin, reference compound] |  |  |  |  |  |  |  |  |  |  |  |  |  |  |  |  |  |  | 103 | 27.7 | IC50 ([3]; Homo sapiens, Jurkat, 72 h): 7.3 nM; IC50 ([4]; Homo sapiens, HCT-116, 72 h): 10.9 nM; IC50 ([5]; Homo sapiens, BXPC-3, 72 h): 38.4 nM; IC50 ([6]; Homo sapiens, MRC5, 72 h): 52.5 nM; IC50 ([7]; Homo sapiens, U-937, 72 h): 19.7 nM; IC50 ([8]; Homo sapiens, Panc1005, 72 h): 45.3 nM; IC50 ([9]; Homo sapiens, COLO-678, 72 h): 126 nM; IC50 ([10]; Homo sapiens, THP-1, 72 h): 44.9 nM; IC50 ([11]; Homo sapiens, Ramos, 72 h): 9.7 nM; IC50 ([12]; Homo sapiens, OVCAR-3, 72 h): 53.4 nM; IC50 ([13]; Homo sapiens, Calu-6, 72 h): 10.2 nM; IC50 ([14]; Homo sapiens, NCI-H1048, 72 h): 9.7 nM; IC50 ([15]; Homo sapiens, SNU-C1, 72 h): 47.4 nM; IC50 ([16]; Homo sapiens, HL-60, 72 h): 21 nM; IC50 ([17]; Homo sapiens, MV4-11, 72 h): 7.1 nM; IC50 ([18]; Homo sapiens, A-375, 72 h): 5.9 nM
CC(=O)O[C@H]1C(=O)[C@@]2(C)[C@H]([C@H](OC(=O)c3ccccc3)[C@]3(O)C[C@H](OC(=O)[C@H](O)[C@@H](NC(=O)c4ccccc4)c4ccccc4)C(C)=C1C3(C)C)[C@]1(OC(C)=O)CO[C@@H]1C[C@@H]2O [Paclitaxel, reference compound] |  |  |  |  |  |  |  |  |  |  |  |  |  |  |  |  |  |  | 6 | 4.6 | IC50 ([3]; Homo sapiens, Jurkat, 72 h): 5.3 nM; IC50 ([4]; Homo sapiens, HCT-116, 72 h): 3.4 nM; IC50 ([5]; Homo sapiens, BXPC-3, 72 h): 5.5 nM; IC50 ([6]; Homo sapiens, MRC5, 72 h): 8.8 nM; IC50 ([7]; Homo sapiens, U-937, 72 h): 3 nM; IC50 ([8]; Homo sapiens, Panc1005, 72 h): 7.4 nM; IC50 ([9]; Homo sapiens, COLO-678, 72 h): 24 nM; IC50 ([10]; Homo sapiens, THP-1, 72 h): 6.8 nM; IC50 ([11]; Homo sapiens, Ramos, 72 h): 5.9 nM; IC50 ([12]; Homo sapiens, OVCAR-3, 72 h): 3 nM; IC50 ([13]; Homo sapiens, Calu-6, 72 h): 3.6 nM; IC50 ([14]; Homo sapiens, NCI-H1048, 72 h): 4.7 nM; IC50 ([15]; Homo sapiens, SNU-C1, 72 h): 26.5 nM; IC50 ([16]; Homo sapiens, HL-60, 72 h): 9.7 nM; IC50 ([17]; Homo sapiens, MV4-11, 72 h): 4.4 nM; IC50 ([18]; Homo sapiens, A-375, 72 h): 7.7 nM
CC[C@H](C)[C@@H](NC(C)=O)C(=O)N[C@@H](C(=O)N[C@H](C(=O)NC(C(=O)N[C@H](C)C(=O)N[C@@H](C(=O)N[C@H](C(=O)NC(C(=O)N[C@H](CN(C)C)C(C)C)=C(C)C)C(C)C)C(C)C)=C(C)C)C(C)(C)O)C(C)(C)O [Compound 24] (Ac-[d(aIle)][dVal(3-OH)][Val(3-OH)][ΔVal][dA][dV]V[ΔVal]-{NH((S)-1-NMe2-3-Me-but-2-yl)}) | > 25000 | > 25000 | > 25000 | > 25000 | > 25000 | > 25000 | > 25000 | > 25000 | > 25000 | > 25000 | > 25000 | > 25000 | > 25000 | > 25000 | 24900 | > 25000 | > 25000 | > 25000 |  |  | 
